Experimental data published in patent US12006302B2, “Tau PET imaging ligands” (Janssen Pharmaceutica NV, priority 2016, dated 2024).

Experiments:
MAO = experiment: in vitro binding of tritiated tracers to MAO-rich human tissue (striatum); settings: cold compound 10 μM; 10 nM [3H]-THK-5351
Description: The tracer was tested at 10 nM and higher concentrations were not investigated in this study.
In comparison, the tau tracer [^3H]-THK-5351 and the Aβ tracer [^3H]-AV-45 were used as THK-5351 is known to also bind MAO.

[1] = system: tau pathology in human AD slices; experiment: [18F]Co. No. 1 binding to human AD tissue in the presence of MAO binders; settings: 0.2 mCi/mL tracer; for effect on [18F]Co. No. 1 binding pattern in human AD slices: compound 10 μM
Description: c) Binding of [^18F] Co. No. 1 to human AD tissue was assessed in the presence of reported MAO binders. […] This binding pattern was maintained when the sample was incubated with 10 μM of clorgiline, a strong irreversible MAO binder with moderate selectivity for the A-subtype (FIG. 7B), or 10 μM selegiline (=deprenyl), a strong irreversible MAO-B binder (FIG. 7C). The binding of [^18F] […] Adjacent AD slices were immunostained with anti-tau (AT8) and anti-Aβ (4G8) antibodies to correlate with [^18F]Co. No. 1 binding (FIG. 8).

[2] = system: NFTs / cortical tau-rich regions; experiment: digital autoradiography with [18F]Co. No. 1 on human AD visual cortex slices, with blocking; assay type: binding; settings: for inhibition of [18F]Co. No. 1 binding: blocker 1 μM, human AD visual cortex slices
Description: Adjacent slices were immunostained for tau pathology (B, AT8) and for amyloid beta pathology (C, 4G8).
a) Air-dried frozen, 10-μm-thick slices of the visual cortex of an AD-patient (with Braak stage V-VI) were incubated for 60 min with [^18F]Co. No. 1 (7.4 kBq/500 μL per slice) and subsequently washed with mixtures of PBS and ethanol as described elsewhere (Xia C. F., Arteaga J., Chen G., et al. Alzheimer's Dement. 2013, 1-11). To assess specificity of binding, slices were incubated with tracer in the presence of 1 μM of authentic T808 or Co. No. 1. After drying, slices were exposed to a phosphor storage screen (super-resolution screen, Perkin Elmer). Screens were read in a Cyclone Plus system (Perkin Elmer, Waltham, MA, U.S.A.) and analyzed using Optiquant software. Results are expressed as digital light units per square mm (DLU/mm^2). Adjacent AD slices were immunostained with anti-tau (AT8) and anti-Aβ antibodies (4G8), to correlate with [^18F]Co. No. 1 binding.

[3] = molecular target: T1, extracted human amyloid-beta aggregates (Homo sapiens, UniProt P05067); experiment: competitive radioligand binding assay, [3H]-AV-45 displacement
T1 construct: amyloid plaques which form by aggregation of beta-amyloid peptide; from tissue; host or cells: human AD brain, occipital cortex with high amyloid plaque load
T1 sequence (P05067 672-713 limits assumed): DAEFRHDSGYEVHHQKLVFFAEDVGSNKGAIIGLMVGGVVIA
Description: Enriched aggregated β-amyloid preps were prepared from frozen human AD brain samples (10 g—occipital cortex with high amyloid plaques load) that were homogenized with 7-fold vol of cold homogenization buffer (250 mM sucrose, 20 mM Tris base, 1 mM EDTA, 1 mM EGTA and PhosSTOP phosphatase and cOmplete EDTA-free protease inhibitor) on ice. After centrifugation at 27 000×g for 20 min at 4° C. cell debris was removed. Supernatant containing amyloid plaques was aliquoted and stored at −80° C.
The competitive radioligand binding assays measure the binding of a radiolabeled reference ligand in the presence of a dose response concentration range of test compounds.
(§1) Values for half-maximal inhibitory concentration (IC50) were determined from displacement curves of at least two independent experiments using GraphPad Prism software (GraphPad Software, San Diego, CA).
To determine compound binding to aggregated β-amyloid a similar assay was put in place but with some minor modifications. […] Nonspecific binding was determined in the presence of 500 μM Thioflavin T. After 150 min incubation at room temperature, the binding mixtures were filtered over GF/B glass filters. […]

[4] = molecular target: extracted human tau aggregates (Homo sapiens, UniProt P10636); experiment: competitive radioligand binding assay, [3H]-T808 displacement
extracted human tau aggregates, sequence (P10636 623-695 limits assumed): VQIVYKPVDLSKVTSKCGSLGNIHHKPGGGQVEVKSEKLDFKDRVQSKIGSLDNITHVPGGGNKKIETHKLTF
Description: Briefly, frozen human AD brain samples (˜10 g) were homogenized with 10 vol of cold homogenization buffer (10 mM Tris, 800 mM NaCl, 1 mM EGTA, 10% sucrose, pH 7.4 containing PhosSTOP phosphatase and cOmplete EDTA-free protease inhibitor (Roche, Vilvoorde, Belgium)) on ice. After centrifugation at 27 000×g for 20 min at 4° C. the supernatant was recovered and 1% (w/v) N-lauroylsarcosine and 1% (v/v) 2-mercaptoethanol were added. The N-lauroylsarcosine/2-mercaptoethanol supernatant was incubated for 2 h at 37° C. while shaking on an orbital shaker. Subsequently, ultracentrifugation at 108 000×g for 1.5 h at room temperature enriched aggregated tau in the pellet. Supernatant was removed and the pellet was carefully rinsed twice with a small amount of TBS (50 mM Tris, 150 mM NaCl, pH 7.4). […]
Briefly, aggregated tau preps were diluted to 100 μg protein/mi in PBS buffer with 5% ethanol. […] After overnight drying of the filter plate, Microscint O liquid (Perkin Elmer) was added and the amount of radiolabeled ligand bound to the fibrils is measured by liquid scintillation counting in a Topcount instrument (Packard Instrument Company, Connecticut, USA).
as §1

aggregated tau = aggregated tau (Homo sapiens, UniProt P10636); settings: literature; cited from earlier work
aggregated tau, sequence (P10636 1-441 isoform P10636-8): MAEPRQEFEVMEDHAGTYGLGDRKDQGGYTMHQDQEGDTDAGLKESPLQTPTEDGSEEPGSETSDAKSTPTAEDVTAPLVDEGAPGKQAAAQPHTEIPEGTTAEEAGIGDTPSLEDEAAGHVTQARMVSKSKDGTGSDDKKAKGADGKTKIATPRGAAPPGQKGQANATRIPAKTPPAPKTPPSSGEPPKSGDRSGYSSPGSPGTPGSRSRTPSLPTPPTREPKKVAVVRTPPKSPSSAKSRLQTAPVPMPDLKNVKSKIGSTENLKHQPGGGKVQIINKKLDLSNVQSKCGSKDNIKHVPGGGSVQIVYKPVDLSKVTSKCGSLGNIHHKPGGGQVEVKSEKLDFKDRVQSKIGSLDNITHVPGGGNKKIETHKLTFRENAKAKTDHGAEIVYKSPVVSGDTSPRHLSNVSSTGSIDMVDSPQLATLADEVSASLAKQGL

[5] = microPET imaging, rhesus monkey; assay type: in vivo, rhesus monkey (Macaca mulatta); settings: baseline scan; for initial brain uptake, SUV value: total brain, IV 185 MBq
Description: A dynamic 120-min μPET scan with [^18F]Co. No. 1 or [^18F]T807 was performed with a Focus 220 μPET scanner on a rhesus monkey (6 y-old male Macaca mulatta, 7.6 kg), that was sedated with ketamine (Ketalar®) and xylazine (Rompun®) via intramuscular (IM) injection. During scanning the monkey received repeatedly an additional dose of ketamine/xylazine via IV injection. O2 saturation in blood, breathing frequency and heartbeat frequency were monitored during the entire experiment. The head of the animal was placed central in the field of view of the μPET scanner. Scans were acquired in list mode and Fourier rebinned in 24 time frames (4×15 s, 4×60 s, 5×180 s, 8×300 s, 3×600 s). Data were reconstructed using a 3D maximum a posteriori (3D-MAP) iterative reconstruction. TACs of the whole brain were generated using VOIs with PMOD software. Radioactivity concentration in the brain is expressed as SUV as a function of time after tracer injection. Scans were started immediately after IV injection of 185 MBq of [^18F]Co. No. 1 or [^18F]T807 via the vena saphena of the right leg. For the pre-treatment study, cold reference compound Co. No. 1 was dissolved in a mixture of 10% DMSO and 40% (2-hydroxypropyl)-o-cyclodextrin, filtered through a 0.22-μm membrane filter (Millex-GV, Millipore) prior to injection. Pre-treatment (n=1) was done by IV co-injection of 1 mg/kg of cold Co. No. 1 and radiotracer solution. μPET images were compared to a baseline scan (n=1), acquired in the non-treated monkey.

[6] = microPET imaging, Wistar rats; assay type: in vivo, Wistar rat; settings: for SUV value at 60 min p.i. (brain wash-out) / initial brain uptake, high intensity SUV value in the brain: baseline scan, whole brain; for initial brain uptake, high intensity SUV value in the brain: IV about 50 MBq; for effect of pre-treatment / chase with cold compound on brain uptake: pre-treatment 10 mg/kg SC 60 min before, chase 1 mg/kg IV 30 min after tracer
Description: Three separate studies are shown: a baseline scan (only tracer), a pre-treatment experiment (cold Co. No. 1 or T807, 10 mg/kg injected subcutaneously 60 min prior to radiotracer injection), and a chase study (cold Co. No. 1 or T807, 1 mg/kg injected intravenously 30 min after radiotracer injection).
A dynamic 120-min μPET scan with [^18F]Co. No. 1 or [^18F]T807 was acquired on a Focus 220 μPET scanner (Concorde Microsystems, Knoxville, TN, U.S.A.) on three female Wistar rats simultaneously. The rats were kept under gas anaesthesia during the whole procedure (2.5% isoflurane in O2 at 1 L/min flow rate). Scans were acquired in list mode and acquisition data were Fourier rebinned in 24 time frames (4×15 s, 4×60 s, 5×180 s, 8×300 s, 3×600 s). Data, which were 3D maximum a posteriori (3D-MAP) reconstructed, were manually aligned with a rat brain ^18F-FDG template in Paxinos coordinates using an affine transformation, to allow predefined volumes of interest (VOIs) analysis (Casteels C., et al. J. Nucl. Med. 2006, 47, 1858-1866). Time-activity curves (TACs) of the whole brain were generated using VOIs with PMOD software (v 3.2, PMOD Technologies, Zürich, Switzerland). Radioactivity concentration in the brain was expressed as standardized uptake value (SUV, calculated as (radioactivity in Bq in brain/mL)/(total injected dose (Bq)/body weight in g)) as a function of time after tracer injection. Scans were started immediately after IV injection of about 50 MBq radiotracer (n=3/tracer). For pre-treatment and displacement studies, cold reference compound Co. No. 1 or T807 was dissolved in a mixture of 5% DMSO, 5% Tween 80 and 40% (2-hydroxypropyl)-β-cyclodextrin, filtered through a 0.22-μm membrane filter (Millex-GV. Millipore) prior to injection. Pre-treatment (n=1) was done by subcutaneous (SC) injection of 10 mg/kg of Co. No. 1 or T807, 60 min prior to radiotracer injection. Displacement (n=1) was performed by IV injection of 1 mg/kg Co. No. 1 or T807 30 min after radiotracer injection. μPET images were compared to a baseline scan (n=1), acquired in a non-treated rat.

SMILES: Cl.FCCCOc1ccc(Nc2ccc3cnccc3c2)nc1
- melting point: 249.3 °C

SMILES: Cl.FCCCNc1ccc(Nc2ccc3cnccc3c2)nc1
- melting point: 285.1 °C

SMILES: Cc1cnc(Nc2ccc3cnccc3c2)cc1F [Co. No. 1]
- blocking of [3H]-THK-5351 binding to MAO-rich human tissue (MAO): blocked
- effect on [18F]Co. No. 1 binding pattern in human AD slices [1]: entirely blocked
- inhibition of [18F]Co. No. 1 binding [2]: 99%
- IC50 ([3]; displacement of [3H]-AV-45 (10 nM), read-out: pIC50, binding to extracted human amyloid-beta aggregates (converted)): 6.61 µM
- Ki ([3]; displacement of [3H]-AV-45, read-out: Ki corresponding to pIC50, extracted human amyloid-beta aggregates (converted)): 3.2 µM
- melting point: 182.53 °C
- IC50 ([4]; displacement of [3H]-T808 (10 nM), read-out: pIC50, binding to extracted human tau aggregates (converted)): 5.75 nM
- Ki ([4]; displacement of [3H]-T808, read-out: Ki corresponding to pIC50, extracted human tau (converted)): 2.4 nM

SMILES: Cc1ccc(Nc2ccc3cnccc3c2)nc1F [Co. No. 2]
- melting point: 203.3 °C

SMILES: FCCc1ccc(Nc2ccc3cnccc3c2)nc1 [Co. No. 3]
- melting point: 208.5 °C

SMILES: FCOc1ccc(Nc2ccc3cnccc3c2)nc1 [Co. No. 4]
- melting point: 173.1 °C

SMILES: FCCNc1ccc(Nc2ccc3cnccc3c2)nc1 [Co. No. 5]
- melting point: 191.4 °C

SMILES: CN(CCF)c1ccc(Nc2ccc3cnccc3c2)nc1 [Co. No. 6]
- melting point: 146.3 °C

SMILES: FCCOc1ccc(Nc2ccc3cnccc3c2)nc1 [Co. No. 9]
- melting point: 104.6 °C

SMILES: FCCC1CCN(c2ccn3c(n2)nc2ccccc23)CC1 [T808]
- inhibition of [18F]Co. No. 1 binding [2]: 99%
- Kd (aggregated tau): 22 nM
- selectivity for tau over Aβ aggregates (aggregated tau): 27 fold

SMILES: CNc1ccc(-c2ccc3cc(OC[C@H](O)CF)ccc3n2)cn1 [THK-5351, reference compound]
- blocking of [3H]-THK-5351 binding to MAO-rich human tissue (MAO): self-blocked

SMILES: Cc1cnc(Nc2ccc3cnccc3c2)cc1[18F] [[^18F]Co. No. 1]
- brain wash-out [5]: rapid wash-out
- distribution over brain regions [5]: homogeneous distribution
- initial brain uptake, SUV value [5]: ~5.4
- tracer binding to tau pathology in human AD slices [1]: strong binding
- tracer binding in digital autoradiography ([2]; 7.4 kBq/500 μL per slice, human AD slices): high and selective binding to cortical tau-rich regions
- SUV value at 60 min p.i. (brain wash-out) [6]: 0.2
- initial brain uptake, high intensity SUV value in the brain [6]: ~2.0
- effect of pre-treatment / chase with cold compound on brain uptake [6]: No self-blocking or self-chase effect

SMILES: [18F]c1ccc(-c2ccc3c(c2)[nH]c2ccncc23)cn1 [[^18F]T807, reference compound]
- brain wash-out [5]: slower
- initial brain uptake, SUV value [5]: ~1.3
- SUV value at 60 min p.i. (brain wash-out) [6]: 0.4
- initial brain uptake, high intensity SUV value in the brain [6]: ~1.8
- effect of pre-treatment / chase with cold compound on brain uptake [6]: Lower brain uptake during the baseline scan

SMILES: C#CCN(C)CCCOc1ccc(Cl)cc1Cl [clorgiline, reference compound]
- effect on [18F]Co. No. 1 binding pattern in human AD slices [1]: maintained

SMILES: C#CCN(C)[C@H](C)Cc1ccccc1 [selegiline, reference compound]
- effect on [18F]Co. No. 1 binding pattern in human AD slices [1]: maintained
